Drawing on BindingDB's records for doi:10.1021/jm9801760 (National Cancer Institute-Bethesda, 1998), this text covers IC50 for nine compounds.

Where only a bound is given, the exact number is not on record here.

Experiment [1] deals with T1, Integrase (Human immunodeficiency virus 1, UniProt Q7ZJM1). The experiment in a line: Inhibition of HIV-1 integrase enzyme at 3`- processing stage of DNA integration.
Experiment [2] has as its target T1, Integrase. Nature of the experiment: Inhibitory concentration as 50% inhibition of HIV-1 integrase enzyme at strand transfer stage of DNA integration.

T1 sequence (Q7ZJM1 whole entry): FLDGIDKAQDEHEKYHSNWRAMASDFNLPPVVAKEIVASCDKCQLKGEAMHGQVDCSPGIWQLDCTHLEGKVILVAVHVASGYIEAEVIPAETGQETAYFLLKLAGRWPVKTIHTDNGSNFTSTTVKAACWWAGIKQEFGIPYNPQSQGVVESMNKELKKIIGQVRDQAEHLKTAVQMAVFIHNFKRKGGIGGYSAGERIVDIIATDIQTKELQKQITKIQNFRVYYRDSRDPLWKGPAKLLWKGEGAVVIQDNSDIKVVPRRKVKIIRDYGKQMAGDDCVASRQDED

As a reminder, the IC50 is the concentration that inhibits the measured activity by half. Turning to `C=c1[nH]n(C(=O)c2ccc(Cl)cc2)c(=O)c1=Cc1ccc(Cl)cc1` [2-(4-Chloro-benzoyl)-4-[1-(4-chloro-phenyl)-meth-(E)-ylidene]-5-methyl-2,4-dihydro-pyrazol-3-one], the IC50 on Integrase [1] and against Integrase [2] was greater than 280 µM in each case.
As for `C=c1[nH]n(C(=O)c2ccc(Cl)cc2)c(=O)c1=Cc1ccc(O)cc1`, the IC50 on Integrase [1] and against Integrase [2] was greater than 293 µM each time.
In the case of `C=c1[nH]n(C(=O)c2ccc(Cl)cc2)c(=O)c1=Cc1cccc(O)c1` [2-(4-Chloro-benzoyl)-4-[1-(3-hydroxy-phenyl)-meth-(E)-ylidene]-5-methyl-2,4-dihydro-pyrazol-3-one], the IC50 against Integrase [1] and at Integrase [2] was greater than 293 µM throughout.
As for `C=c1[nH]n(C(=O)c2ccc(Cl)cc2)c(=O)c1=Cc1ccccc1O` [2-(4-Chloro-benzoyl)-4-[1-(2-hydroxy-phenyl)-meth-(E)-ylidene]-5-methyl-2,4-dihydro-pyrazol-3-one], the IC50 against Integrase [1] and against Integrase [2] was greater than 293 µM throughout.
Regarding `C=c1[nH]n(C(=O)c2ccccc2O)c(=O)c1=Cc1ccc(O)c(OC)c1` [2-(2-Hydroxy-benzoyl)-4-[1-(4-hydroxy-3-methoxy-phenyl)-meth-(E)-ylidene]-5-methyl-2,4-dihydro-pyrazol-3-one], the IC50 on Integrase [1] is 0.8 µM; on Integrase [2], 0.6 µM.
The corresponding values for `C=c1[nH]n(C(=O)c2ccc(Cl)cc2)c(=O)c1=Cc1ccc(OC)c(OC)c1` [2-(4-Chloro-benzoyl)-4-[1-(3,4-dimethoxy-phenyl)-meth-(E)-ylidene]-5-methyl-2,4-dihydro-pyrazol-3-one] are greater than 260 µM and greater than 260 µM.
Turning to `C=c1[nH]n(C(=O)c2ccccc2O)c(=O)c1=Cc1ccc(OC)cc1`, the IC50 at Integrase [1] is 0.9 µM.
In the case of `C=c1[nH]n(C(=O)c2ccccc2O)c(=O)c1=Cc1ccc(O)cc1` [2-(2-Hydroxy-benzoyl)-4-[1-(4-hydroxy-phenyl)-meth-(E)-ylidene]-5-methyl-2,4-dihydro-pyrazol-3-one], the IC50 at Integrase [1] is 0.6 µM; against Integrase [2] it was 0.9 µM.
The corresponding values for `C=c1[nH]n(C(=O)c2ccc(Cl)cc2)c(=O)c1=Cc1cc(OC)c(OC)c(OC)c1` [2-(4-Chloro-benzoyl)-5-methyl-4-[1-(3,4,5-trimethoxy-phenyl)-meth-(E)-ylidene]-2,4-dihydro-pyrazol-3-one] are greater than 240 µM and greater than 240 µM.
